Tests used:
[1] = Concentration of ladostigil in plasma of rats after oral or rectal administration (LC-MS/MS); format: in vivo; details: rat
Protocol: Methods: Male Wister rats weighing 250-270g were used for these experiments. […] In other rats, the same dose of ladostigil was administered via a cannula gently inserted into the rectum and pushed forward to reach the colon. […] The brain was removed, and the cortex carefully dissected and stored at-80° C. until further analysis. Blood was collected in heparinized Eppendorf tubes, centrifuged at 4° C., 20,800 g for 10 min and the plasma was stored at −80° C. until further analysis.
(§1) Samples were prepared for LC-MS analysis after precipitating the proteins in plasma and cortical extracts with methanol as described in Moradov et al. (2015). Briefly, rivastigmine 750 ng/ml (internal standard) was added to 50 μl of plasma or supernatant after brain homogenization and ladostigil was extracted with HPLC grade MeOH. 75 μl of double distilled water (DDW) was added to 150 μl of the supernatant to give a final ratio of DDW:MeOH 1:1. The samples were filtered through […] GHP membranes and injected into the LC-MS machine. LC-MS/MS analysis was also performed as described in Moradov et al. (2015).
(§2) Ladostigil and rivastigmine were detected by an AB Sciex (Framingham, MA, USA) Triple Quad™ 5500 mass spectrometer in positive ion mode by electrospray ionization (ESI) and a multiple reaction monitoring (MRM) mode of acquisition. Data acquisition and analysis were performed on a Dell Optiplex 960 computer with Analyst 1.6.2 software distributed by AB Sciex. Quantitative calibration (0-100 ng/ml) was performed before every batch of samples. The calibration curve (y=a+bx) was obtained by linear least-squares regression of the measured peak area (y) versus the concentration added to the biological matrix (x). The limit of quantification (LOQ) of ladostigil in plasma and cortex was 50 pg/ml.

[2] = Concentration of ladostigil in plasma of human subjects after a single oral dose (LC/MS/MS); format: in vivo, humans; details: read-out: Concentration of ladostigil in plasma, mean ± STD (coefficient of variation)
[3] = Concentration of ladostigil in brain (cortex) of rats after oral or rectal administration (LC-MS/MS); format: in vivo; details: male, Wistar, rat, read-out: Concentration of ladostigil in brain (cortex), mean ± STD (coefficient of variation)
Protocol: Methods: Male Wister rats weighing 250-270g were used for these experiments. Ladostigil was administered by gavage at a dose of 5 mg/kg (volume 0.25-0.27ml). In other rats, the same dose of ladostigil was administered via a cannula gently inserted into the rectum and pushed forward to reach the colon. The rats were anesthetized with isofluorane and sacrificed by decapitation at 0, 15, 30, 60 or 120 min after ladostigil administration. The brain was removed, and the cortex carefully dissected and stored at-80° C. until further analysis. Blood was collected in heparinized Eppendorf tubes, centrifuged at 4° C., 20,800 g for 10 min and the plasma was stored at −80° C. until further analysis.
as §1, §2

[4] = Blood levels of ladostigil after oral administration, detection time and inter subject variability; format: in vivo, humans and rodent species
Protocol: Ladostigil is well absorbed from the gastro intestinal tract and can be detected in the blood within 15 minutes after oral administration in humans and rodent species. However, the inter subject variability in these blood levels at peak times after administration is very high with coefficients of variation of more than 100% irrespective of the dose administered. (Table 1). This is undesirable and could exacerbate any variability in the response to treatment by ladostigil of potential patients. The wide inter individual variation in blood levels may explain why the therapeutic effect of the drug in the clinical trial was not more pronounced.

[5] = Concentration of ladostigil in brain (cortex) of rats after oral or rectal administration (LC-MS/MS); format: in vivo; details: male, Wistar, rat, read-out: Concentration of ladostigil in brain (cortex), mean ± STD (coefficient of variation); remark: listed apart in the source
[6] = normal healthy subjects aged 18-40, single oral dose 50 mg
[7] = normal healthy subjects aged 18-40, single oral dose 100 mg
[8] = oral administration (gavage) 5 mg/kg
[9] = other: rectal administration, rectal administration 5 mg/kg

**Q.** For `C#CCN[C@@H]1CCc2ccc(OC(=O)N(C)CC)cc21` [ladostigil, 6-(N-ethyl, N-methyl, carbamyloxy)-N propargyl-1(R)-aminoindan, tartarate], which concentration at 15 min ([1]; male, Wistar, other: rectal administration, rats, rectal administration 5 mg/kg, 15 min, read-out: Concentration of ladostigil in plasma, mean ± STD (coefficient of variation)) is on record?
**A.** Its concentration at 15 min is 60.6 ng/mL.

**Q.** What about the concentration at 30 min ([1]; male, Wistar, other: rectal administration, rats, rectal administration 5 mg/kg, 30 min, read-out: Concentration of ladostigil in plasma, mean ± STD (coefficient of variation)) of the same molecule?
**A.** Its concentration at 30 min is 47.2 ng/mL.

**Q.** And the concentration at 60 min ([1]; male, Wistar, other: rectal administration, rats, rectal administration 5 mg/kg, 60 min, * significantly higher than after oral treatment p < 0.05, read-out: Concentration of ladostigil in plasma, mean ± STD (coefficient of variation))?
**A.** Its concentration at 60 min is 33.7 ng/mL.

**Q.** And the concentration at 120 min ([1]; male, Wistar, other: rectal administration, rats, rectal administration 5 mg/kg, 120 min, * significantly higher than after oral treatment p < 0.05, read-out: Concentration of ladostigil in plasma, mean ± STD (coefficient of variation))?
**A.** The concentration at 120 min was 14.1 ng/mL.

**Q.** And the concentration at 180 min ([1]; male, Wistar, other: rectal administration, rats, rectal administration 5 mg/kg, 180 min, * significantly higher than after oral treatment p < 0.05, read-out: Concentration of ladostigil in plasma, mean ± STD (coefficient of variation))?
**A.** The concentration at 180 min was 13.9 ng/mL.

**Q.** And the concentration at 15 min ([1]; male, Wistar rats, single oral dose 5 mg/kg, 15 min (Table 1), read-out: Concentration of ladostigil in plasma, mean ± STD (coefficient of variation))?
**A.** Its concentration at 15 min is 53.7 ng/mL.

**Q.** And the concentration at 30 min ([1]; male, Wistar rats, single oral dose 5 mg/kg, 30 min (Table 1), read-out: Concentration of ladostigil in plasma, mean ± STD (coefficient of variation))?
**A.** The concentration at 30 min was 36.4 ng/mL.

**Q.** What about the concentration at 60 min ([1]; male, Wistar rats, single oral dose 5 mg/kg, 60 min (Table 1), read-out: Concentration of ladostigil in plasma, mean ± STD (coefficient of variation)) of the same molecule?
**A.** Its concentration at 60 min is 8.3 ng/mL.

**Q.** What about the concentration at 120 min ([1]; male, Wistar rats, single oral dose 5 mg/kg, 120 min (Table 1), read-out: Concentration of ladostigil in plasma, mean ± STD (coefficient of variation)) of the same molecule?
**A.** The concentration at 120 min was 4.9 ng/mL.

**Q.** What about the concentration at 180 min ([1]; male, Wistar rats, single oral dose 5 mg/kg, 180 min (Table 1), read-out: Concentration of ladostigil in plasma, mean ± STD (coefficient of variation)) of the same molecule?
**A.** Its concentration at 180 min is 2.4 ng/mL.

**Q.** And the concentration at 15 min ([1]; Wistar rats, single oral dose 1 mg/kg, 15 min, read-out: Concentration of ladostigil in plasma, mean ± STD (coefficient of variation))?
**A.** The concentration at 15 min was 18.7 ng/mL.

**Q.** And the concentration at 30 min ([1]; Wistar rats, single oral dose 1 mg/kg, 30 min, read-out: Concentration of ladostigil in plasma, mean ± STD (coefficient of variation))?
**A.** The concentration at 30 min was 12.3 ng/mL.

**Q.** And the concentration at 60 min ([1]; Wistar rats, single oral dose 1 mg/kg, 60 min, read-out: Concentration of ladostigil in plasma, mean ± STD (coefficient of variation))?
**A.** Its concentration at 60 min is 6.7 ng/mL.

**Q.** What about the concentration at 120 min ([1]; Wistar rats, single oral dose 1 mg/kg, 120 min, read-out: Concentration of ladostigil in plasma, mean ± STD (coefficient of variation)) of the same molecule?
**A.** The concentration at 120 min was 1.6 ng/mL.

**Q.** And the concentration at 15 min [2, 6]?
**A.** The concentration at 15 min was 3.74 ng/mL.

**Q.** What about the concentration at 30 min [2, 6] of the same molecule?
**A.** The concentration at 30 min was 18 ng/mL.

**Q.** And the concentration at 60 min [2, 6]?
**A.** The concentration at 60 min was 8.29 ng/mL.

**Q.** What about the concentration at 120 min [2, 6] of the same molecule?
**A.** Its concentration at 120 min is 2.88 ng/mL.

**Q.** What about the concentration at 15 min [2, 7] of the same molecule?
**A.** The concentration at 15 min was 9.3 ng/mL.

**Q.** What about the concentration at 30 min [2, 7] of the same molecule?
**A.** Its concentration at 30 min is 34.8 ng/mL.

**Q.** And the concentration at 60 min [2, 7]?
**A.** Its concentration at 60 min is 97.6 ng/mL.

**Q.** What about the concentration at 120 min [2, 7] of the same molecule?
**A.** Its concentration at 120 min is 44.4 ng/mL.

**Q.** And the concentration at 180 min ([2]; normal healthy subjects aged 18-40, single oral dose 100 mg, 180 min)?
**A.** The concentration at 180 min was 15.3 ng/mL.

**Q.** And the concentration at 15 min [3, 8]?
**A.** Its concentration at 15 min is 17.9 ng/g.

**Q.** And the concentration at 30 min [3, 8]?
**A.** The concentration at 30 min was 9.3 ng/g.

**Q.** What about the concentration at 60 min [3, 8] of the same molecule?
**A.** Its concentration at 60 min is 6.7 ng/g.

**Q.** And the concentration at 120 min [3, 8]?
**A.** The concentration at 120 min was 4.9 ng/g.

**Q.** What about the concentration at 15 min [3, 9] of the same molecule?
**A.** The concentration at 15 min was 14.3 ng/g.

**Q.** And the concentration at 30 min [3, 9]?
**A.** Its concentration at 30 min is 11.9 ng/g.

**Q.** What about the concentration at 60 min [3, 9] of the same molecule?
**A.** Its concentration at 60 min is 9.3 ng/g.

**Q.** And the concentration at 120 min [3, 9]?
**A.** The concentration at 120 min was 7.4 ng/g.

**Q.** And the “Coefficient of variation of blood levels (inter subject variability)” value ([4]; at peak times after oral administration, irrespective of the dose)?
**A.** Its value is “more than 100%”.

**Q.** What about the “Time after which ladostigil can be detected in the blood” value ([4]; oral administration, humans and rodent species) of the same molecule?
**A.** The value was no more than 15 min.

**Q.** What about the concentration at 180 min [5, 8] of the same molecule?
**A.** The concentration at 180 min was 2.9 ng/g.

**Q.** What about the concentration at 180 min [5, 9] of the same molecule?
**A.** The concentration at 180 min was 2.8 ng/g.

Reference: US20250152547A1, “COMPOSITIONS FOR DELIVERY OF LADOSTIGIL” (priority 2019, published 2025)
